Measured values as given in ChEMBL document CHEMBL2429735, “Preparation of imidazoles as potent calcitonin gene-related peptide (CGRP) antagonists” (Bioorg Med Chem Lett, 2013).

What was measured:
[1] = target: Calcitonin gene-related peptide type 1 receptor (Homo sapiens, UniProt O60894+Q16602); assay: Antagonist activity at human CGRP receptor expressed in human SK-N-MC cells assessed as inhibition of CGRP-stimulated cAMP production; assay type: functional, cell-based
[2] = Permeability of the compound by PAMPA method at pH 7.4; assay type: ADME; settings: read-out: permeability
Liver microsomes [3] = assay: Metabolic stability in rat liver microsomes assessed as compound remaining; assay type: ADME, Microsome
Liver = assay: Metabolic stability in mouse liver microsomes assessed as compound remaining; assay type: ADME, Microsome
Liver microsomes [4] = assay: Metabolic stability in human liver microsomes assessed as compound remaining; assay type: ADME, Microsome

Calcitonin gene-related peptide type 1 receptor, sequence (Q16602 whole entry, one chain of several): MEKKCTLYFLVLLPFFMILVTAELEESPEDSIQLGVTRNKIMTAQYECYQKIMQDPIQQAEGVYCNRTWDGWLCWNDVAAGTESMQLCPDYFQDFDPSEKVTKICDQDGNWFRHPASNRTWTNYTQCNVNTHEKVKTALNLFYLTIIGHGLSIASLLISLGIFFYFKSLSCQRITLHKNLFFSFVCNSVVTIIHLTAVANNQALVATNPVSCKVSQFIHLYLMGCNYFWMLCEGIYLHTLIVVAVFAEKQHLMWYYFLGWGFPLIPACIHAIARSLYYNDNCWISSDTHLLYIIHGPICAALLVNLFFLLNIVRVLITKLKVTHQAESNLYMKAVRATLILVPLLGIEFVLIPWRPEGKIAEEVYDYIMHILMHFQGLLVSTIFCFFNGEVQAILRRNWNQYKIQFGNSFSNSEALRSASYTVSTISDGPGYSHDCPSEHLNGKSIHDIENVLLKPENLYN

Row | Compound | IC50 [1] [pM] | Papp [2] [×10⁻⁶ cm/s] | Stability (Liver microsomes [3]) [%] | Stability (Liver) [%] | Stability (Liver microsomes [4]) [%]
1 | Cc1cc(CC(OC(=O)N2CCC(c3cc4ccccc4[nH]c3=O)CC2)c2ncc3n2CCNC3)cc2cn[nH]c12 (racemic) | 2900 |  |  |  | 
2 | Cc1cc(CC(OC(=O)N2CCC(c3cc4ccccc4[nH]c3=O)CC2)c2ncc3n2CCN(Cc2ccccc2)C3)cc2cn[nH]c12 (racemic) |  |  | 32 | 9 | 41
3 | Cc1cc(CC(OC(=O)N2CCC(c3cc4ccccc4[nH]c3=O)CC2)c2ncc3n2CCN(C2CCCCC2)C3)cc2cn[nH]c12 (racemic) |  |  | 30 | 21 | 41
4 | Cc1cc(CC(NC(=O)N2CCC(N3Cc4ccccc4NC3=O)CC2)c2nccn2Cc2ccncc2)cc2cn[nH]c12 (racemic) | 830 |  |  |  | 
5 | Cc1cc(CC(NC(=O)N2CCC(N3Cc4ccccc4NC3=O)CC2)c2nccn2Cc2ccccn2)cc2cn[nH]c12 (racemic) | 1600 |  | 1 | 0 | 1
6 | Cc1cc(CC(NC(=O)N2CCC(N3Cc4ccccc4NC3=O)CC2)c2nc(Br)c(Br)[nH]2)cc2cn[nH]c12 (racemic) | 4800 |  |  |  | 
7 | Cc1cc(CC(NC(=O)N2CCC(N3Cc4ccccc4NC3=O)CC2)c2ncc(Br)[nH]2)cc2cn[nH]c12 (racemic) | 7400 |  |  |  | 
8 | Cc1c[nH]c(C(Cc2cc(C)c3[nH]ncc3c2)NC(=O)N2CCC(N3Cc4ccccc4NC3=O)CC2)n1 (racemic) | 120000 |  |  |  | 
9 | Cc1cc(CC(NC(=O)N2CCC(N3Cc4ccccc4NC3=O)CC2)c2nccn2Cc2ccc(F)cc2)cc2cn[nH]c12 (racemic) | 980 |  |  |  | 
10 | Cc1cc(CC(NC(=O)N2CCC(N3Cc4ccccc4NC3=O)CC2)c2nccn2Cc2ccccc2F)cc2cn[nH]c12 (racemic) | 1900 |  |  |  | 
11 | Cc1cc(CC(NC(=O)N2CCC(N3Cc4ccccc4NC3=O)CC2)c2nccn2CCc2ccccc2)cc2cn[nH]c12 (racemic) | 880 |  |  |  | 
12 | Cc1cc(CC(NC(=O)N2CCC(N3Cc4ccccc4NC3=O)CC2)c2ncc[nH]2)cc2cn[nH]c12 (racemic) | 97000 |  |  |  | 
13 | Cc1cc(CC(NC(=O)N2CCC(N3Cc4ccccc4NC3=O)CC2)c2nccn2C)cc2cn[nH]c12 (racemic) | 4800 |  |  |  | 
14 | Cc1cc(CC(NC(=O)N2CCC(N3Cc4ccccc4NC3=O)CC2)c2nccn2Cc2ccccc2)cc2cn[nH]c12 (racemic) | 770 |  |  |  | 

More lines, in order of falling IC50 [1], values ahead:

Row | IC50 [1] [pM] | Papp [2] [×10⁻⁶ cm/s] | Stability (Liver microsomes [3]) [%] | Stability (Liver) [%] | Stability (Liver microsomes [4]) [%] | Compound
15 | 630 |  |  |  |  | Cc1cc(CC(NC(=O)N2CCC(N3Cc4ccccc4NC3=O)CC2)c2nccn2Cc2cccc(F)c2)cc2cn[nH]c12 (racemic)
16 | 420 |  | 20 | 2 | 4 | Cc1cc(CC(NC(=O)N2CCC(N3Cc4ccccc4NC3=O)CC2)c2nccn2Cc2cccnc2)cc2cn[nH]c12 (racemic)
17 | 390 |  | 100 | 93 | 100 | Cc1cc(CC(NC(=O)N2CCC(N3Cc4ccccc4NC3=O)CC2)c2nc(Br)cn2Cc2cc(F)cc(F)c2)cc2cn[nH]c12 (racemic)
18 | 390 |  | 78 | 66 | 84 | Cc1cc(CC(NC(=O)N2CCC(N3Cc4ccccc4NC3=O)CC2)c2nccn2Cc2cc(F)cc(F)c2)cc2cn[nH]c12 (racemic)
19 | 370 |  | 87 | 85 | 100 | Cc1cc(CC(NC(=O)N2CCC(N3Cc4ccccc4NC3=O)CC2)c2ncc(C)n2Cc2cccc(F)c2)cc2cn[nH]c12 (racemic)
20 | 190 |  |  |  |  | Cc1cc(CC(NC(=O)N2CCC(N3Cc4ccccc4NC3=O)CC2)c2nccn2Cc2ccc(C(C)(C)C)cc2)cc2cn[nH]c12 (racemic)
21 | 130 |  | 2 | 1 | 1 | Cc1cc(Cn2ccnc2C(Cc2cc(C)c3[nH]ncc3c2)NC(=O)N2CCC(N3Cc4ccccc4NC3=O)CC2)ccn1 (racemic)
22 | 78 | 3.8 | 2 | 0 | 2 | Cc1cc(Cn2ccnc2C(Cc2cc(C)c3[nH]ncc3c2)NC(=O)N2CCC(N3Cc4ccccc4NC3=O)CC2)cc(Cl)n1 (racemic)
23 | 26 | 1.1 |  |  |  | Cc1cc(C[C@@H](NC(=O)N2CCC(N3Cc4cccc(F)c4NC3=O)CC2)C(=O)N2CCC(N3CCCCC3)CC2)cc2cn[nH]c12
